These results are taken from patent US10538498B2, “1,3,4-oxadiazole sulfonamide derivative compounds as histone deacetylase 6 inhibitor, and the pharmaceutical composition comprising the same” (Chong Kun Dang Pharmaceutical Corp., priority 2015, dated 2020).

pIC50: −log10 of the molar value.

One assay concerns the target T1, human recombinant HDAC1 (Homo sapiens, UniProt Q13547).
T1 construct: purchased Enzo Life Science BML-SE456
Briefly: HDAC1 enzyme activity inhibition assay (HDAC Fluorimetric Drug Discovery Kit). The format is biochemical. Conditions: 0.3 μg enzyme, 10 μM substrate, 30° C., 60 minutes. In a few lines: (§1)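 IC50s derived from fluorescence (Ex 360, Em 460) read after a 30-min developer step. Beforehand, compounds in 5-fold dilution series reacted 60 min at 30° C with 0.3 μg human recombinant enzyme and 10 μM Fluor de Lys-SIRT1 substrate.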

Another assay deals with T2, human recombinant HDAC6 (Homo sapiens, UniProt Q9UBN7).
T2 construct: purchased Calbiochem 382180
T2 sequence (Q9UBN7 1-1215): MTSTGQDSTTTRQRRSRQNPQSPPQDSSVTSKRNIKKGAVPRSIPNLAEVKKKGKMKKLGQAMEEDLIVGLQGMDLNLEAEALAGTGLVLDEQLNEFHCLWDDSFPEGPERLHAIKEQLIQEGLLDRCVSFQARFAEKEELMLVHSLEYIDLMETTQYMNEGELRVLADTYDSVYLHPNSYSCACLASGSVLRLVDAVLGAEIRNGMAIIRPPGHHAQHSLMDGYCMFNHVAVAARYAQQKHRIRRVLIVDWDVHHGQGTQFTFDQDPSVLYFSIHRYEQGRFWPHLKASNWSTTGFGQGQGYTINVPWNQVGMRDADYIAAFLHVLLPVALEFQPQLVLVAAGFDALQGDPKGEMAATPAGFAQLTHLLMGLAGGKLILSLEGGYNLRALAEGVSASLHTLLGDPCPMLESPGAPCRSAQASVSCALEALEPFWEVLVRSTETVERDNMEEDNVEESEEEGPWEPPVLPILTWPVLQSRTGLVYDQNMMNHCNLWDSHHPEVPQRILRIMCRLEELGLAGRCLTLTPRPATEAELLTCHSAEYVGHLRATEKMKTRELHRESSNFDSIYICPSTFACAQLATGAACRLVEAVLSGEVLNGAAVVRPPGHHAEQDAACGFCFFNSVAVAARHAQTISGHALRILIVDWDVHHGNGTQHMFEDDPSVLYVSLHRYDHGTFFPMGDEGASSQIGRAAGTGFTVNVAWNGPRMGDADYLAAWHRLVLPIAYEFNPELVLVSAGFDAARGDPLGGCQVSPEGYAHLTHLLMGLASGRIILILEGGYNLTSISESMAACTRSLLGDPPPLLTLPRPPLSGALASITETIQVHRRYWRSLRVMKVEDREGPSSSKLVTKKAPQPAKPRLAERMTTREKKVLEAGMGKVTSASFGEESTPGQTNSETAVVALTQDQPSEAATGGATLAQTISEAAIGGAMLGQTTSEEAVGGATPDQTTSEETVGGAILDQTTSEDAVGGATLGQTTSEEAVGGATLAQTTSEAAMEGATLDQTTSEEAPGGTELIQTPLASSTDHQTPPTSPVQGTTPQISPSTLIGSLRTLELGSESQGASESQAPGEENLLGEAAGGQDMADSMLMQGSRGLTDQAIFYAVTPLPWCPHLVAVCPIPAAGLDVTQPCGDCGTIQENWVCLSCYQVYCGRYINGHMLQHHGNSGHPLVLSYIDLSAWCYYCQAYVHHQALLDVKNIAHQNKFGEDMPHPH
Briefly: HDAC6 enzyme activity inhibition assay (HDAC Fluorimetric Drug Discovery Kit). The format is biochemical. The following applies: for HDAC6 selectivity (fold): HDAC1 vs HDAC6; for pIC50: same protocol as the HDAC1 enzyme activity test. An outline of the steps:
as §1

T1 sequence (Q13547 whole entry): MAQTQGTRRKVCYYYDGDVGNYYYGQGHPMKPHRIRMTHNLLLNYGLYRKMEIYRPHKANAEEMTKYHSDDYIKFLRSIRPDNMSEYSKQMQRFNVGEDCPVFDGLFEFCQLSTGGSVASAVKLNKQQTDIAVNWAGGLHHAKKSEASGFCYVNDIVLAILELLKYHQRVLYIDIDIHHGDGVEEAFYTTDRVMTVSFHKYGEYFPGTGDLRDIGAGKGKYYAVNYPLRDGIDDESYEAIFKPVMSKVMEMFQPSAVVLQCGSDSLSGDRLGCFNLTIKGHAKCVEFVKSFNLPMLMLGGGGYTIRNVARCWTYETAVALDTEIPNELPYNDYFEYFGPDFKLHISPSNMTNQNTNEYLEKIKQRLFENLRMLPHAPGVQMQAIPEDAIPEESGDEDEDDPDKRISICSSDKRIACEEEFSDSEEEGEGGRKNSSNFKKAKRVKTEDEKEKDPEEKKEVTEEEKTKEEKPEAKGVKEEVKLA

As usually defined, the pIC50 is the IC50 on a negative log10 scale, so that one unit is a factor of ten. Take `O=S(=O)(C1CCN(C2CCC2)CC1)N(Cc1ccc(-c2nnc(C(F)F)o2)cc1)c1ccccc1` [Compound 11639, 1-cyclobutyl-N-(4-(5-(difluoromethyl)-1,3,4-oxadiazol-2-yl)benzyl)-N-phenylpiperidine-4-sulfonamide]: on human recombinant HDAC1, the pIC50 was 4.11. Also, at human recombinant HDAC6, the “HDAC6 selectivity (fold)” value was 1849 fold and the pIC50 was 7.38.
`O=S(=O)(CCN1CCCC1)N(Cc1ccc(-c2nnc(C(F)F)o2)cc1)c1ccccc1` [Compound 11645, N-(4-(5-(difluoromethyl)-1,3,4-oxadiazol-2-yl)benzyl)-N-phenyl-2-(pyrrolidin-1-yl)ethane-1-sulfonamide]: on human recombinant HDAC1, the pIC50 was 4.11. Further, at human recombinant HDAC6, the “HDAC6 selectivity (fold)” value is 1277 fold and the pIC50 is 7.21.
In the same order, the values of `C[C@@H]1CN(CCS(=O)(=O)N(Cc2ccc(-c3nnc(C(F)F)o3)cc2)c2ccccc2)C[C@H](C)N1C` [Compound 11646, N-(4-(5-(difluoromethyl)-1,3,4-oxadiazol-2-yl)benzyl)-N-phenyl-2-((3S,5R)-3,4,5-trimethylpiperazin-1-yl)ethane-1-sulfonamide] are 3.96, 7254 fold and 7.82.
Taken in the same sequence, the figures for `O=S(=O)(CCCN1CCCC1)N(Cc1ccc(-c2nnc(C(F)F)o2)cc1)c1ccccc1` [Compound 11647, N-(4-(5-(difluoromethyl)-1,3,4-oxadiazol-2-yl)benzyl)-N-phenyl-3-(pyrrolidin-1-yl)propane-1-sulfonamide] were 4.10, 3626 fold and 7.66.
Taken in the same sequence, the figures for `CS(=O)(=O)N1CCN(CCCS(=O)(=O)N(Cc2ccc(-c3nnc(C(F)F)o3)cc2)c2ccccc2)CC1` [Compound 11648, N-(4-(5-(difluoromethyl)-1,3,4-oxadiazol-2-yl)benzyl)-3-(4-(methylsulfonyl)piperazin-1-yl)-N-phenylpropane-1-sulfonamide] were 3.30, 8300 fold and 7.22.
Take `O=C(c1cncn1CCS(=O)(=O)N(Cc1ccc(-c2nnc(C(F)F)o2)cc1)c1ccccc1)C(F)F` [Compound 11678, 2-(5-(2,2-difluoroacetyl)-1H-imidazol-1-yl)-N-(4-(5-(difluoromethyl)-1,3,4-oxadiazol-2-yl)benzyl)-N-phenylethane-1-sulfonamide]: the figures for the pIC50 on human recombinant HDAC1 and at human recombinant HDAC6 were 4.26 and 7.25, respectively. Further, the “HDAC6 selectivity (fold)” value on human recombinant HDAC6 came out at 975 fold.
Taken in the same sequence, the figures for `O=S(=O)(CCN1CCN(CCCO)CC1)N(Cc1ccc(-c2nnc(C(F)F)o2)cc1)c1ccccc1` [Compound 11679, N-(4-(5-(difluoromethyl)-1,3,4-oxadiazol-2-yl)benzyl)-2-(4-(3-hydroxypropyl)piperazin-1-yl)-N-phenylethane-1-sulfonamide] were 4.21, 7.64 and 2666 fold.
In the same order, the values of `O=S(=O)(C1CCN(C2COC2)CC1)N(Cc1ccc(-c2nnc(C(F)F)o2)cc1)c1ccccc1` [Compound 11680, N-(4-(5-(difluoromethyl)-1,3,4-oxadiazol-2-yl)benzyl)-1-(oxetan-3-yl)-N-phenylpiperidine-4-sulfonamide] are 4.12, 7.54 and 2634 fold.
Regarding `Cc1cccc(N(Cc2ccc(-c3nnc(C(F)F)o3)cn2)S(=O)(=O)C2CCN(C3CC4CCC3C4)CC2)c1` (stereo not drawn) [Compound 11686, 1-(bicyclo[2.2.1]heptan-2-yl)-N-((5-(5-(difluoromethyl)-1,3,4-oxadiazol-2-yl)pyridin-2-yl)methyl)-N-(m-tolyl)piperidine-4-sulfonamide], the pIC50 was 4.22 on human recombinant HDAC1 and 7.04 on human recombinant HDAC6. Besides, the “HDAC6 selectivity (fold)” value on human recombinant HDAC6 is reported as 654 fold.
On to `Cc1cccc(N(Cc2ccc(-c3nnc(C(F)F)o3)cn2)S(=O)(=O)C2CCN(C3CCC(F)(F)CC3)CC2)c1` [Compound 11687, 1-(4,4-difluorocyclohexyl)-N-((5-(5-(difluoromethyl)-1,3,4-oxadiazol-2-yl)pyridin-2-yl)methyl)-N-(m-tolyl)piperidine-4-sulfonamide], for which the pIC50 at human recombinant HDAC1 is 4.10. Besides, on human recombinant HDAC6, the “HDAC6 selectivity (fold)” value worked out at 741 fold and the negative-log IC50 (pIC50) is 6.97.
`Cc1cccc(N(Cc2ccc(-c3nnc(C(F)F)o3)cn2)S(=O)(=O)C2CCN([C@H]3CC[C@H](F)CC3)CC2)c1` [Compound 11688, N-((5-(5-(difluoromethyl)-1,3,4-oxadiazol-2-yl)pyridin-2-yl)methyl)-1-((1r,4r)-4-fluorocyclohexyl)-N-(m-tolyl)piperidine-4-sulfonamide]: the pIC50 at human recombinant HDAC1 is 4.69. On human recombinant HDAC6, the “HDAC6 selectivity (fold)” value worked out at 423 fold and the pIC50 was 7.32.
In the same order, the values of `Cc1cccc(N(Cc2ccc(-c3nnc(C(F)F)o3)cn2)S(=O)(=O)C2CCN([C@H]3CC[C@@H](F)CC3)CC2)c1` [Compound 11689, N-((5-(5-(difluoromethyl)-1,3,4-oxadiazol-2-yl)pyridin-2-yl)methyl)-1-((1s,4s)-4-fluorocyclohexyl)-N-(m-tolyl)piperidine-4-sulfonamide] are 4.70, 429 fold and 7.33.
Taken in the same sequence, the figures for `Cc1cccc(N(Cc2ccc(-c3nnc(C(F)F)o3)cn2)S(=O)(=O)C2CCN([C@H]3CC[C@H](C(F)(F)F)CC3)CC2)c1` [Compound 11690, N-((5-(5-(difluoromethyl)-1,3,4-oxadiazol-2-yl)pyridin-2-yl)methyl)-N-(m-tolyl)-1-((1r,4r)-4-(trifluoromethyl)cyclohexyl)piperidine-4-sulfonamide] were 4.26, 244 fold and 6.65.
Taken in the same sequence, the figures for `Cc1cccc(N(Cc2ccc(-c3nnc(C(F)F)o3)cn2)S(=O)(=O)C2CCN([C@H]3CC[C@@H](C(F)(F)F)CC3)CC2)c1` [Compound 11691, N-((5-(5-(difluoromethyl)-1,3,4-oxadiazol-2-yl)pyridin-2-yl)methyl)-N-(m-tolyl)-1-((1s,4s)-4-(trifluoromethyl)cyclohexyl)piperidine-4-sulfonamide] were 4.47, 425 fold and 7.09.
For `Cc1cccc(N(Cc2ccc(-c3nnc(C(F)F)o3)cn2)S(=O)(=O)C2CCN(C3CCOCC3)CC2)c1` [Compound 11692, N-((5-(5-(difluoromethyl)-1,3,4-oxadiazol-2-yl)pyridin-2-yl)methyl)-1-(tetrahydro-2H-pyran-4-yl)-N-(m-tolyl)piperidine-4-sulfonamide], on human recombinant HDAC1, the pIC50 was 4.14. In addition, on human recombinant HDAC6, the “HDAC6 selectivity (fold)” value was 1309 fold and the pIC50 is 7.26.
Regarding `Cc1cccc(N(Cc2ccc(-c3nnc(C(F)F)o3)cc2)S(=O)(=O)C2CCN([C@H]3CC[C@H](F)CC3)CC2)c1` [Compound 11695, N-(4-(5-(difluoromethyl)-1,3,4-oxadiazol-2-yl)benzyl)-1-((1r,4r)-4-fluorocyclohexyl)-N-(m-tolyl)piperidine-4-sulfonamide], on human recombinant HDAC1, the pIC50 was 4.21. On human recombinant HDAC6, the “HDAC6 selectivity (fold)” value came to 306 fold and the pIC50 was 6.70.
Regarding `Cc1cccc(N(Cc2ccc(-c3nnc(C(F)F)o3)cc2)S(=O)(=O)C2CCN([C@H]3CC[C@@H](F)CC3)CC2)c1` [Compound 11696, N-(4-(5-(difluoromethyl)-1,3,4-oxadiazol-2-yl)benzyl)-1-((1s,4s)-4-fluorocyclohexyl)-N-(m-tolyl)piperidine-4-sulfonamide], the pIC50 on human recombinant HDAC1 is 4.29. On human recombinant HDAC6, the “HDAC6 selectivity (fold)” value is 289 fold and the pIC50 was 6.75.
In the same order, the values of `C[C@H]1CCCN1CCCS(=O)(=O)N(Cc1ccc(-c2nnc(C(F)F)o2)cc1)c1ccccc1` [Compound 11707, (S)—N-(4-(5-(difluoromethyl)-1,3,4-oxadiazol-2-yl)benzyl)-3-(2-methylpyrrolidin-1-yl)-N-phenylpropane-1-sulfonamide] are 4.37, 597 fold and 7.15.
